These results are taken from ChEMBL document CHEMBL1909046, “DrugMatrix in vitro pharmacology data”.

The structures appear in SMILES notation.

A short description of data set [1]: DRUGMATRIX: GABAA, Chloride Channel, TBOB radioligand binding (ligand: [3H] TBOB). The class given is cell membranes, Rattus norvegicus, Wistar, Cerebral cortex, Membrane. The settings on record: Not Active = under 50% inhibition at 10 µM.
In data set [2] the target is T1, C-X-C chemokine receptor type 2 (Homo sapiens, UniProt P25025). Note: in other assays of this panel Not Active means under 50% inhibition at 10 µM.
T1 sequence (P25025 whole entry): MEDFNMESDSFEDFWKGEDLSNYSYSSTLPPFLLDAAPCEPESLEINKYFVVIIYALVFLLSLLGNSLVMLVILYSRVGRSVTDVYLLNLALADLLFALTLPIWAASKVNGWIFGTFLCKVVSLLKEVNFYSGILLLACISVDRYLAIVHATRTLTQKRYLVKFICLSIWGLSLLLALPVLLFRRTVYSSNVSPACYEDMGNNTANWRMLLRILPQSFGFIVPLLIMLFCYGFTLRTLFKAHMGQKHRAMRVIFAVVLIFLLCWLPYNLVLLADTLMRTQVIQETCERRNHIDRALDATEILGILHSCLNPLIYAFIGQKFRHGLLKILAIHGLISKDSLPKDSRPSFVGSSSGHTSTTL
The class given is cell membranes, Membrane. Conditions: cho-k1.

The target of data set [3] is T2, Estrogen receptor (Homo sapiens, UniProt P03372). Note: in other assays of this panel Not Active means under 50% inhibition at 10 µM.
T2 sequence (P03372 whole entry): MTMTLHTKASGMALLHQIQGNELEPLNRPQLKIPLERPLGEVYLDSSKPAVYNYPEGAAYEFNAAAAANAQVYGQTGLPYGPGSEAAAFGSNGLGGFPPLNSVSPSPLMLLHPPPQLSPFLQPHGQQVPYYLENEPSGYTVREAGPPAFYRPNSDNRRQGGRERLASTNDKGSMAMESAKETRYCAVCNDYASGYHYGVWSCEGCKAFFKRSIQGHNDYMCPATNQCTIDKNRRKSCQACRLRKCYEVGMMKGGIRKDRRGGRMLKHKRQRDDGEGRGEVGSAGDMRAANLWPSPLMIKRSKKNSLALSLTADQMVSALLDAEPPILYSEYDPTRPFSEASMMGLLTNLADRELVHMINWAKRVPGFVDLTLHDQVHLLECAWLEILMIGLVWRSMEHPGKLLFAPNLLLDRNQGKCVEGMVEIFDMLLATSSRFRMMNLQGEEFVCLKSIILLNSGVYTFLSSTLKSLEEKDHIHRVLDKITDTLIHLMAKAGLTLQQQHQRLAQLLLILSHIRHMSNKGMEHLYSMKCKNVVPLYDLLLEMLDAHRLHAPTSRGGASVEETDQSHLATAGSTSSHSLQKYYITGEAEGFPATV
The settings on record: sf9.

The target in data set [4] is Cannabinoid receptor 1 (Homo sapiens, UniProt P21554). The class given is cell membranes, Chem-1, Membrane. The settings on record: chem-1. Note: in other assays of this panel Not Active means under 50% inhibition at 10 µM.
The target of data set [5] is 5-hydroxytryptamine receptor 6 (Homo sapiens, UniProt P50406). The class given is cell membranes, HeLa, Membrane. Conditions: hela. Note: in other assays of this panel Not Active means under 50% inhibition at 10 µM.
Data set [6] in a line: DRUGMATRIX: Platelet-Derived Growth Factor (PDGF) radioligand binding (ligand: [125I] PDGF). The class given is cell-based. The settings on record: nih3t3; Not Active = under 50% inhibition at 10 µM.
For data set [7], the target named is Cytochrome P450 3A4 (Homo sapiens, UniProt P08684). Conditions: bti-tn-5b1-4. Note: in other assays of this panel Not Active means under 50% inhibition at 10 µM.
The target of data set [8] is Beta-3 adrenergic receptor (Homo sapiens, UniProt P13945). Kind of data set: DRUGMATRIX: Adrenergic beta3 radioligand binding (ligand: [125I] Cyanopindolol). The settings on record: Not Active = under 50% inhibition at 10 µM. The class given is cell membranes, HEK293, Membrane.
Sequence of Beta-3 adrenergic receptor (P13945 whole entry): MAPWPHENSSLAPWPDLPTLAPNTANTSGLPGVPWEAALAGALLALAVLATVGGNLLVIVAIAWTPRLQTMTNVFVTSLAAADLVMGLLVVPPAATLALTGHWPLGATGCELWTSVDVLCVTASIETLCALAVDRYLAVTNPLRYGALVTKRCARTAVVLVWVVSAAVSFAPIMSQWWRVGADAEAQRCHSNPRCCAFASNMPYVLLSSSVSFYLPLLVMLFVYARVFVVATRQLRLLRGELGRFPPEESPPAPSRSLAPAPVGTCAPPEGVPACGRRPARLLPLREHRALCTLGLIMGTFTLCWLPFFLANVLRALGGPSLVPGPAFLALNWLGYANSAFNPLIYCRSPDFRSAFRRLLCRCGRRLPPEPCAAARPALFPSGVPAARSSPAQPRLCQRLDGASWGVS

Sequence of Cytochrome P450 3A4 (P08684 whole entry): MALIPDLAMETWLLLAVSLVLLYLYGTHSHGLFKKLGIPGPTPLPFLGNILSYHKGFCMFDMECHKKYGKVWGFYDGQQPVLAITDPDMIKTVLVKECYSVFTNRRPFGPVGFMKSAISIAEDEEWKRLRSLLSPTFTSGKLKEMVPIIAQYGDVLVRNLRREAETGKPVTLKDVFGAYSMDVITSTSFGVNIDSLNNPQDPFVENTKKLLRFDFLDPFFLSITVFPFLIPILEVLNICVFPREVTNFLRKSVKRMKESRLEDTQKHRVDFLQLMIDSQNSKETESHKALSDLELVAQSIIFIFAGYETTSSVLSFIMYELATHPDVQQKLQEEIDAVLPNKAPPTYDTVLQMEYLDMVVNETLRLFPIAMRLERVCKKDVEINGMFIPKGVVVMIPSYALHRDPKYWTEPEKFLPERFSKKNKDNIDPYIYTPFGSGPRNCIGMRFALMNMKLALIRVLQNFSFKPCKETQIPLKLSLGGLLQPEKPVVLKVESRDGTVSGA
Sequence of Cannabinoid receptor 1 (P21554 whole entry): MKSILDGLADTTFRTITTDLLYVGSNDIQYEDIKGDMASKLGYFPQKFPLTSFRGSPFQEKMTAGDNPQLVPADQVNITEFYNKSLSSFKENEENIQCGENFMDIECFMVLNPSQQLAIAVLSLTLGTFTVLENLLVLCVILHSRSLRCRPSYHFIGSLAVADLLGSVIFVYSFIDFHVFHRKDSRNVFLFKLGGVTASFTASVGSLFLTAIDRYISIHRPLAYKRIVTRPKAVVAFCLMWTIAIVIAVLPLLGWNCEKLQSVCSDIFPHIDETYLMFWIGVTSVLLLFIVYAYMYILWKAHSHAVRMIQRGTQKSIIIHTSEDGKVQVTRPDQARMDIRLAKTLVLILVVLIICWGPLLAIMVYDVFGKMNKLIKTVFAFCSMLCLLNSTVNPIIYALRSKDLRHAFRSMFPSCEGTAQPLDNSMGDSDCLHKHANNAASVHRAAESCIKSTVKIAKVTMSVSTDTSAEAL
Sequence of 5-hydroxytryptamine receptor 6 (P50406 whole entry): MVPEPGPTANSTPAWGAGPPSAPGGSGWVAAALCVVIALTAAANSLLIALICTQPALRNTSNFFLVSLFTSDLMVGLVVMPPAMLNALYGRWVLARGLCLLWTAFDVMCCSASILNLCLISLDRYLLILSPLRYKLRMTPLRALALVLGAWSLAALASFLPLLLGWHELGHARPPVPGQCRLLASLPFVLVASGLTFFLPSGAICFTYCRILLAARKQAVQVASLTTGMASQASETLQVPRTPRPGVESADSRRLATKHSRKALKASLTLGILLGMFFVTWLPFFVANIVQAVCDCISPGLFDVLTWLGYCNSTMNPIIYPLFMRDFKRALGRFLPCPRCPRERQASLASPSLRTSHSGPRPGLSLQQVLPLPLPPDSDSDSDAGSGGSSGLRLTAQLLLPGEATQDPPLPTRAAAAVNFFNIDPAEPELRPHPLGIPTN

As for `O=C/C=C/c1ccccc1`, the IC50 entry in data set [1], in data set [2], in data set [3], in data set [4], in data set [5] and in data set [6] was “Not Active” each time. For the same compound, the IC50 result in data set [7] and in data set [8] (hek293) was “Not Active” throughout. For the same compound, the Ki entry in data set [1], in data set [6] and in data set [7] was “Not Active” each time.
Regarding `Nc1ccc2c3c(cccc13)C(=O)NC2=O`, the IC50 result in data set [1], in data set [2], in data set [3], in data set [4], in data set [5] and in data set [6] was “Not Active” each time. Also, the IC50 result in data set [7] and in data set [8] (hek293) was “Not Active” in each case. Further, the Ki entry in data set [1], in data set [6] and in data set [7] was “Not Active” throughout.
As for `O=c1cnn([C@@H]2O[C@H](CO)[C@@H](O)[C@H]2O)c(=O)[nH]1` [6-AZAURIDINE], the IC50 entry in data set [1], in data set [2], in data set [3], in data set [4], in data set [5] and in data set [6] was “Not Active” each time. Besides, the IC50 result in data set [7] and in data set [8] (hek293) was “Not Active” throughout. The Ki entry in data set [1], in data set [6] and in data set [7] was “Not Active” each time.
`CC[C@H](C)[C@H]1O[C@]2(C=C[C@@H]1C)C[C@@H]1C[C@@H](C/C=C(\C)[C@@H](O[C@H]3C[C@H](OC)[C@@H](O[C@H]4C[C@H](OC)[C@@H](O)[C@H](C)O4)[C@H](C)O3)[C@@H](C)/C=C/C=C3\CO[C@@H]4[C@H](O)C(C)=C[C@@H](C(=O)O1)[C@]34O)O2.CO[C@H]1C[C@H](O[C@H]2[C@H](C)O[C@@H](O[C@@H]3/C(C)=C/C[C@@H]4C[C@@H](C[C@]5(C=C[C@H](C)[C@@H](C(C)C)O5)O4)OC(=O)[C@@H]4C=C(C)[C@@H](O)[C@H]5OC/C(=C\C=C\[C@@H]3C)[C@]54O)C[C@@H]2OC)O[C@@H](C)[C@@H]1O` [ABAMECTIN]: the IC50 entry in data set [1], in data set [2], in data set [3], in data set [4], in data set [5] and in data set [6] was “Not Active” throughout. Besides, the IC50 result in data set [7] and in data set [8] (hek293) was “Not Active” each time. Further, the Ki result in data set [1], in data set [6] and in data set [7] was “Not Active” in each case.
`Cc1nnc2n1-c1ccc(Cl)cc1C(c1ccccc1)=NC2` [ALPRAZOLAM]: the IC50 entry in data set [1], in data set [2], in data set [3], in data set [4], in data set [5] and in data set [6] was “Not Active” each time. For the same compound, the IC50 result in data set [7] and in data set [8] (hek293) was “Not Active” throughout. In addition, the Ki entry in data set [1], in data set [6] and in data set [7] was “Not Active” in each case.
With `COc1ccc(C2C(=O)c3ccccc3C2=O)cc1` [ANISINDIONE], the half-inhibitory concentration (IC50) result in data set [1], in data set [2], in data set [3], in data set [4], in data set [5] and in data set [6] was “Not Active” throughout. Also, the IC50 entry in data set [7] and in data set [8] (hek293) was “Not Active” in each case. The Ki result in data set [1], in data set [6] and in data set [7] was “Not Active” each time.
`CC(C(=O)O)c1ccc2oc(-c3ccc(Cl)cc3)nc2c1` (centres undefined) [BENOXAPROFEN]: the IC50 result in data set [1], in data set [2], in data set [3], in data set [4], in data set [5] and in data set [6] was “Not Active” throughout. Further, the IC50 entry in data set [7] and in data set [8] (hek293) was “Not Active” in each case. The Ki result in data set [1], in data set [6] and in data set [7] was “Not Active” each time.
As for `COc1ccc2cc3[n+](cc2c1OC)CCc1cc2c(cc1-3)OCO2.[Cl-]` [BERBERINE CHLORIDE], the IC50 result in data set [1], in data set [2], in data set [3], in data set [4], in data set [5] and in data set [6] was “Not Active” throughout. Moreover, the IC50 result in data set [7] and in data set [8] (hek293) was “Not Active” throughout. Further, the Ki entry in data set [1], in data set [6] and in data set [7] was “Not Active” each time.
Consider `O=C(O)CCNC(=O)c1ccccc1` [BETAMIPRON], for which the IC50 entry in data set [1], in data set [2], in data set [3], in data set [4], in data set [5] and in data set [6] was “Not Active” each time. Besides, the IC50 result in data set [7] and in data set [8] (hek293) was “Not Active” in each case. The Ki entry in data set [1], in data set [6] and in data set [7] was “Not Active” each time.
Turning to `CC(=O)Oc1ccc(C(c2ccc(OC(C)=O)cc2)c2ccccn2)cc1` [BISACODYL], the IC50 entry in data set [1], in data set [2], in data set [3], in data set [4], in data set [5] and in data set [6] was “Not Active” in each case. For the same compound, the IC50 result in data set [7] and in data set [8] (hek293) was “Not Active” each time. Also, the Ki result in data set [1], in data set [6] and in data set [7] was “Not Active” throughout.
Turning to `Cc1cc2c(OCC(CNC(C)(C)C)OC(=O)c3ccccc3)cccc2[nH]1` (centres undefined) [BOPINDOLOL], the IC50 entry in data set [1], in data set [2], in data set [3], in data set [4], in data set [5] and in data set [6] was “Not Active” in each case. Besides, the IC50 entry is “Not Active” in data set [7] and 0.458 µM in data set [8] (read-out: IC50). Further, the Ki result in data set [1] was “Not Active”; in data set [6], “Not Active”; in data set [7], “Not Active”; in data set [8] (read-out: Ki), 0.344 µM.
With `CCC(=O)O[C@]1(C(=O)CCl)[C@@H](C)C[C@H]2[C@@H]3CCC4=CC(=O)C=C[C@]4(C)[C@@]3(F)[C@@H](O)C[C@@]21C` [CLOBETASOL PROPIONATE], the IC50 result in data set [1], in data set [2], in data set [3], in data set [4], in data set [5] and in data set [6] was “Not Active” each time. The IC50 entry in data set [7] and in data set [8] (hek293) was “Not Active” each time. Besides, the Ki result in data set [1], in data set [6] and in data set [7] was “Not Active” throughout.
On to `O=C1CN=C(c2ccccc2Cl)c2cc([N+](=O)[O-])ccc2N1` [CLONAZEPAM], for which the IC50 entry in data set [1], in data set [2], in data set [3], in data set [4], in data set [5] and in data set [6] was “Not Active” throughout. In addition, the IC50 entry in data set [7] and in data set [8] (hek293) was “Not Active” throughout. The Ki entry in data set [1], in data set [6] and in data set [7] was “Not Active” in each case.

As usually defined, the IC50 is the point on the concentration scale where inhibition reaches its midpoint. The Ki is a dissociation constant, usually derived from enzyme kinetics or from competition with a known ligand.
